Measured values as given in US9586963B2 (GENFIT, priority 2011, dated 2017).

molecular target: T1, Rev-Erb alpha (Homo sapiens, UniProt P20393); test: M2H (mammalian two-hybrid) cellular activation assay of Rev-Erb alpha; type: cell-based; conditions: M2H assay, HEK293 cells, Gal4-Rev-Erb alpha / VP16-NCoR, luciferase reporter
T1 sequence (P20393 284-614 limits assumed): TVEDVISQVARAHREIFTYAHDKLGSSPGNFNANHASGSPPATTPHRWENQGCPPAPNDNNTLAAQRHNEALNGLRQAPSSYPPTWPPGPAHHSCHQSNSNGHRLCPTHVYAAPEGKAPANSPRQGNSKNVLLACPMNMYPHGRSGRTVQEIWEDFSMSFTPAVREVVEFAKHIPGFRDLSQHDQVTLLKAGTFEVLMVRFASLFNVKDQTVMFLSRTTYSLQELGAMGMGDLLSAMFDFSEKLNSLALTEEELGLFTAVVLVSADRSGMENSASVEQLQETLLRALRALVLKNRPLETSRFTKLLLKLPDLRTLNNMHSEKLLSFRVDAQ
Protocol: In this system, Rev-Erb alpha or Rev-Erb beta is expressed as a fusion to the Gal4 DNA-binding domain and the cofactor NCoR is expressed as a fusion to the activation domain of the Herpes Simplex Virus tegument protein VP16. These fusion proteins were included in plasmids at a concentration of 1 μg/μL. The pBS-SK+ vector was added to the preparation to adjust the DNA quantity to a fixed value for each condition.
The transfection mix (Jet-PEI protocol, Polyplus transfection) comprised: • 3 mL of Jet PEI Mix (180 μL Jet-Pei and NaCl at 150 mM) and • 3 mL of the DNA Mix or of the DNA Mix control (wherein the Gal4-Rev-Erb alpha plasmid was replaced by a pGal4phi plasmid).
DNA Mix comprised 1.2 mL of DNA and 1.8 mL of NaCl at 150 mM with, in a T225 flask: • 90 ng of Gal4-Rev-Erb alpha, or 90 ng of Gal4-Rev-Erb beta, • 4500 ng of VP16-NCoR, • 27000 ng of Gal4-RE and • 13410 ng of pBS-SK+. Cells
HEK293 cells were cultured in DMEM (Invitrogen 41965) comprising 10% FBS, P/S, 1% glutamine, 1% pyruvate (Invitrogen 11360) and 1% amino acids (Invitrogen 11140). Cells were then batch co-transfected with plasmid vectors (described in the table above) using as Jet-PEI as reagent (Polyplus) following the protocol specified below.
The 6 mL-transfection mix was transferred in a T225 flask. HEK293 cells were then added at a concentration of 12 Millions of cells for 54 mL of medium (DMEM comprising 10% FBS and 1% P/S). Cells incubated over-night at 37° C. and under 5% CO2.
This cell-based assay is performed using 384-well Greiner white plates (Reference 781080). After the incubation, cells were rinsed with PBS, trypsinized, centrifuged and resuspended in free-serum DMEM without phenol red (Invitrogen 31053). Cells were counted and adjusted to 0.5 Million per mL and plated at a concentration of 10,000 cells in 20 μL per well. They were incubated a minimum of 4 hours at 37° C. under 5% CO2. Cells were treated with 20 μL of the compound to analyze (concentration of 2× diluted in DMEM without FBS containing a maximum of 1% DMSO) and incubated over-night (18 hours, 37° C. and 5% CO2). Each compound has been tested at 6 different concentrations to depict a dose-effect allowing the measure of biochemical parameters such as EC50 and TOP activation (%).
Cells were incubated 30 minutes with 40 μL/well of Steady Glow (Promega) and luminescence was read with TECAN Genios Pro (100 ms/w). Four experiments were carried out for each compound.
Each compound has been tested at 6 different concentrations to depict a dose-effect allowing the measure of biochemical parameters such as EC50 and TOP activation (%).
The mammalian two-hybrid system (M2H) assay consists herein in studying the ability of compounds according to the invention to activate Rev-Erbalpha in cells and thus modulate the interaction with its corepressor. The interaction of the two proteins is assessed with the help of the Luciferase reporter gene. HEK293 cells were transfected with two gene constructions: Gal4-RE VP16-NCoR and Gal4-Rev-Erbalpha or with Gal4-RE, sVP16-NCoR and Gal4-Rev-Erb beta.
The ability of compounds according to the invention of activating Rev-Erbalpha alpha or Rev-Erb beta was assessed in the described cell-based assay. EC50 and TOP activation (%) were measured.

EC50 [µM] | Structure (SMILES)
1 to 6 | Clc1nnc2ccc(Oc3ccc(CN4CCOCC4)cc3-c3ccccc3)nn12 [Cpd.4-62, 3-chloro-6-(5-morpholinomethyl-biphenyl-2-yloxy)-[1,2,4]triazolo[4,3-b]pyridazine]
1 to 6 | Cc1ncncc1-c1ccc(C(F)(F)F)cc1Oc1cc(C)c2nnc(Cl)n2n1 [Cpd.5-45, 3-chloro-8-methyl-6-(2-(4-methylpyrimidin-5-yl)-5-(trifluoromethyl)phenoxy)-[1,2,4]triazolo[4,3-b]pyridazine]
1 to 6 | FC(F)(F)c1cccc(Oc2ccc3nnc(Cl)n3n2)c1-c1cccnc1 [Cpd.4-129, 3-chloro-6-(2-(pyridin-3-yl)-3-(trifluoromethyl)phenoxy)-[1,2,4]triazolo[4,3-b]pyridazine]
> 6 | CCCCn1cc(-c2ccc(C(F)(F)F)cc2Oc2ccc3nnc(Cl)n3n2)ccc1=O [Cpd.4-89, 1-butyl-5-(2-(3-chloro-[1,2,4]triazolo[4,3-b]pyridazin-6-yloxy)-4-(trifluoromethyl)phenyl)pyridin-2(1H)-one]
1 to 6 | Cc1cc2nnc(Cl)n2nc1Oc1cc(C(F)(F)F)ccc1-c1cncnc1 [Cpd.5-29, 3-chloro-7-methyl-6-(2-(pyrimidin-5-yl)-5-(trifluoromethyl)phenoxy)-[1,2,4]triazolo[4,3-b]pyridazine]
> 6 | CN1CCN(Cc2ccc(Oc3ccc4nnc(Cl)n4n3)c(-c3ccccc3)c2)CC1 [Cpd.4-159, 3-chloro-6-(5-(4-methylpiperazin-1-ylmethyl)biphenyl-2-yloxy)-[1,2,4]triazolo[4,3-b]pyridazine]
> 6 | NCc1ccc(-c2ccccc2)c(Oc2ccc3nnc(Cl)n3n2)c1 [Cpd.4-65, 3-chloro-6-(4-aminomethyl-biphenyl-2-yloxy)-[1,2,4]triazolo[4,3-b]pyridazine]
0.1 to 1 | CNc1ccc(-c2ccccc2)c(Oc2ccc3nnc(Cl)n3n2)c1 [Cpd.4-52, 3-chloro-6-(4-N-methylamino-biphenyl-2-yloxy)-[1,2,4]triazolo[4,3-b]pyridazine]
1 to 6 | Nc1ccc(-c2ccccc2)c(Oc2ccc3nnc(Cl)n3n2)c1 [Cpd.4-48, 3-chloro-6-(4-amino-biphenyl-2-yloxy)-[1,2,4]triazolo[4,3-b]pyridazine]
1 to 6 | O=C(c1ccccc1)c1cc(Cl)ccc1Oc1ccc2nnc(Cl)n2n1 [Cpd.4-42, (5-chloro-2-(3-chloro-[1,2,4]triazolo[4,3-b]pyridazin-6-yloxy)phenyl)(phenyl)methanone]
0.1 to 1 | Cc1ccc(-c2ccc(C(F)(F)F)cc2Oc2nn3c(Cl)nnc3cc2C)cn1 [Cpd.5-17, 3-chloro-7-methyl-6-(2-(6-methylpyridin-3-yl)-5-(trifluoromethyl)phenoxy)-[1,2,4]triazolo[4,3-b]pyridazine]
0.1 to 1 | Cc1ncccc1-c1ccc(C(F)(F)F)cc1Oc1nn2c(Cl)nnc2c2ccccc12 [Cpd.5-21, 3-chloro-6-(2-(2-methylpyridin-3-yl)-5-(trifluoromethyl)phenoxy)-[1,2,4]triazolo[3,4-a]phthalazine]
0.1 to 1 | COc1cccc(-c2ccccc2Oc2ccc3nnc(Cl)n3n2)c1 [Cpd.4-16, 6-(3′-methoxy-biphenyl-2-yloxy)-3-chloro-[1,2,4]triazolo[4,3-b]pyridazine]
1 to 6 | Cc1cc2nnc(Cl)n2nc1Oc1cc(C(F)(F)F)ccc1-c1cncnc1C [Cpd.5-47, 3-chloro-7-methyl-6-(2-(4-methylpyrimidin-5-yl)-5-(trifluoromethyl)phenoxy)-[1,2,4]triazolo[4,3-b]pyridazine]
1 to 6 | CC(=O)Nc1ccc(Oc2ccc3nnc(Cl)n3n2)c(-c2ccccc2)c1 [Cpd.4-174, 3-chloro-6-(5-acetamidobiphenyl-2-yloxy)-[1,2,4]triazolo[4,3-b]pyridazine]
1 to 6 | OCc1ccc(-c2ccccc2)c(Oc2ccc3nnc(Cl)n3n2)c1 [Cpd.4-155, 3-chloro-6-(4-(hydroxymethyl)biphenyl-2-yloxy)-[1,2,4]triazolo[4,3-b]pyridazine]
> 6 | Cc1noc(C)c1-c1ccccc1Oc1ccc2nnc(Cl)n2n1 [Cpd.4-109, 3-chloro-6-(2-(3,5-dimethylisoxazol-4-yl)phenoxy)-[1,2,4]triazolo[4,3-b]pyridazine]
0.1 to 1 | COc1ccccc1-c1ccccc1Oc1ccc2nnc(Cl)n2n1 [Cpd.4-111, 3-chloro-6-(2′-methoxybiphenyl-2-yloxy)-[1,2,4]triazolo[4,3-b]pyridazine]
1 to 6 | Cc1ccc(-c2cc(F)ccc2Oc2ccc3nnc(C(F)(F)F)n3n2)cc1 [Cpd.4-142, 3-(trifluoromethyl)-6-(5-fluoro-4′-methylbiphenyl-2-yloxy)-[1,2,4]triazolo[4,3-b]pyridazine]
0.1 to 1 | Cc1ccc(-c2cc(F)ccc2Oc2ccc3nnc(Cl)n3n2)cc1 [Cpd.4-143, 3-chloro-6-(5-fluoro-4′-methylbiphenyl-2-yloxy)-[1,2,4]triazolo[4,3-b]pyridazine]
0.1 to 1 | Clc1cccc(-c2ccccc2Oc2ccc3nnc(Cl)n3n2)c1 [Cpd.4-29, 6-(3′-chloro-biphenyl-2-yloxy)-3-chloro-[1,2,4]triazolo[4,3-b]pyridazine]
1 to 6 | CS(=O)(=O)Nc1ccc(Oc2ccc3nnc(Cl)n3n2)c(-c2ccccc2)c1 [Cpd.4-173, 3-chloro-6-(5-methylsulfonamidobiphenyl-2-yloxy)-[1,2,4]triazolo[4,3-b]pyridazine]
1 to 6 | Clc1nnc2ccc(Oc3cc(CNC4CC4)ccc3-c3ccccc3)nn12 [Cpd.4-178, 3-chloro-6-(4-cyclopropylaminomethylbiphenyl-2-yloxy)-[1,2,4]triazolo[4,3-b]pyridazine]
1 to 6 | COc1ncc(-c2ccc(C(F)(F)F)cc2Oc2ccc3nnc(Cl)n3n2)cn1 [Cpd.4-127, 3-chloro-6-((2-(2-methoxypyrimidin-5-yl))-5-(trifluoromethyl)phenoxy)-[1,2,4]triazolo[4,3-b]pyridazine]
0.1 to 1 | COc1ccc(-c2ccc(C(F)(F)F)cc2Oc2ccc3nnc(Cl)n3n2)cn1 [Cpd.4-81, 3-chloro-6-(2-(6-methoxypyridin-3-yl)-5-(trifluoromethyl)phenoxy)-[1,2,4]triazolo[4,3-b]pyridazine]
> 6 | CN1CCN(Cc2ccc(-c3ccccc3)c(Oc3ccc4nnc(Cl)n4n3)c2)CC1 [Cpd.4-177, 3-chloro-6-(4-(1-methylpiperazin-4-ylmethyl)biphenyl-2-yloxy)-[1,2,4]triazolo[4,3-b]pyridazine]
0.1 to 1 | Cc1ncccc1-c1ccc(C(F)(F)F)cc1Oc1cc(C)c2nnc(Cl)n2n1 [Cpd.5-19, 3-chloro-8-methyl-6-(2-(2-methylpyridin-3-yl)-5-(trifluoromethyl)phenoxy)-[1,2,4]triazolo[4,3-b]pyridazine]
0.1 to 1 | FC(F)(F)c1ccc(Oc2ccc3nnc(Cl)n3n2)c(-c2ccccc2)c1 [Cpd.4-40, 6-(5-trifluoromethyl-biphenyl-2-yloxy)-3-chloro-[1,2,4]triazolo[4,3-b]pyridazine]

Structure (SMILES) | EC50 [µM]
CN(CCc1ccccc1)Cc1ccc(Oc2ccc3nnc(Cl)n3n2)c(-c2ccccc2)c1 | 1 to 6

same assay, conditions: M2H assay, HEK293 cells; relative to DMSO; at the tested dose; read-out: TOP activation

Emax [%] | Structure (SMILES)
> 130 | CCCCn1cc(-c2ccc(C(F)(F)F)cc2Oc2ccc3nnc(Cl)n3n2)ccc1=O [Cpd.4-89, 1-butyl-5-(2-(3-chloro-[1,2,4]triazolo[4,3-b]pyridazin-6-yloxy)-4-(trifluoromethyl)phenyl)pyridin-2(1H)-one]
> 130 | CN1CCN(Cc2ccc(Oc3ccc4nnc(Cl)n4n3)c(-c3ccccc3)c2)CC1 [Cpd.4-159, 3-chloro-6-(5-(4-methylpiperazin-1-ylmethyl)biphenyl-2-yloxy)-[1,2,4]triazolo[4,3-b]pyridazine]
> 130 | NCc1ccc(-c2ccccc2)c(Oc2ccc3nnc(Cl)n3n2)c1 [Cpd.4-65, 3-chloro-6-(4-aminomethyl-biphenyl-2-yloxy)-[1,2,4]triazolo[4,3-b]pyridazine]
> 130 | Cc1noc(C)c1-c1ccccc1Oc1ccc2nnc(Cl)n2n1 [Cpd.4-109, 3-chloro-6-(2-(3,5-dimethylisoxazol-4-yl)phenoxy)-[1,2,4]triazolo[4,3-b]pyridazine]
> 130 | CN1CCN(Cc2ccc(-c3ccccc3)c(Oc3ccc4nnc(Cl)n4n3)c2)CC1 [Cpd.4-177, 3-chloro-6-(4-(1-methylpiperazin-4-ylmethyl)biphenyl-2-yloxy)-[1,2,4]triazolo[4,3-b]pyridazine]
